Assay results taken from patent US7223862B2, “Pyridone compounds useful for producing pyridine compounds” (Sumitomo Chemical Company, Limited, priority 2001, dated 2007).

Assays:
[1] = test system: velvetleaf; assay: Reference test example 2: soil surface treatment, herbicidal activity; format: in vivo; details: soil surface spray of emulsifiable concentrate, 500 g/ha, examined 19 days after spraying, greenhouse
From the text: (§1) Cylindrical plastic pots, each of which has a diameter of 10 cm and a depth of 10 cm, were filled with soil, and then seeded with ivyleaf morning glory and velvetleaf. Each of the compounds 1, 2, 3, 6, 8, 12, 15, 16, 19, 21, 40, 59 and 76 was formulated into an emulsifiable concentrate according to Reference formulation example 2, and diluted with water. The dilution was uniformly sprayed over the soil surface with a sprayer at a rate of 1000 liters per hectare. After spraying, the test plants were grown in the greenhouse for 19 days, and the herbicidal activity was examined.

[2] = test system: ivyleaf morning glory; assay: as above; format: in vivo; details: soil surface spray of emulsifiable concentrate, 500 g/ha, examined 19 days after spraying, greenhouse
From the text: as §1

[3] = test system: velvetleaf; assay: Reference test example 1: foliar treatment, herbicidal activity; format: in vivo; details: foliage spray of emulsifiable concentrate, 125 g/ha, examined 12 days after spraying, greenhouse
Description: as §1, with “velvetleaf. The test plants were grown in a greenhouse for 10 days. Then, each” for “velvetleaf. Each”, “with water containing a spreading agent.” for “with water.”, “the foliage of the test plants” for “the soil surface”, “for 12” for “for 19”

[4] = test system: ivyleaf morning glory; assay: as above; format: in vivo; details: foliage spray of emulsifiable concentrate, 125 g/ha, examined 12 days after spraying, greenhouse
Description: as §1, with “velvetleaf. The test plants were grown in a greenhouse for 10 days. Then, each” for “velvetleaf. Each”, “with water containing a spreading agent.” for “with water.”, “the foliage of the test plants” for “the soil surface”, “for 12” for “for 19”

melting point [°C] | SMILES | herbicidal activity (control of growth) [1] | herbicidal activity (control of growth) [2] | herbicidal activity (control of growth) [3] | herbicidal activity (control of growth) [4]
 | COC(=O)COc1ncccc1Oc1cc(-n2c(=O)cc(C(F)(F)F)n(C)c2=O)c(F)cc1Br [Compound 21] | perfectly controlled the growth | perfectly controlled the growth | perfectly controlled the growth | perfectly controlled the growth
 | COC(=O)COc1ncccc1Oc1cc(-n2c(=O)cc(C(F)(F)F)n(C)c2=O)c(F)cc1[N+](=O)[O-] [Compound 59] | perfectly controlled the growth | perfectly controlled the growth | perfectly controlled the growth | perfectly controlled the growth
 | CCOC(=O)COc1ncccc1Oc1cc(-n2c(=O)cc(C(F)(F)F)n(C)c2=O)c(F)cc1Cl [Compound 3, 3-[2-chloro-4-fluoro-5-(3-methyl-2,6-dioxo-4-trifluoromethyl-1,2,3,6-tetrahydropyrimidin-1-yl)phenoxy]-2-(ethoxycarbonylmethoxy)pyridine] | perfectly controlled the growth | perfectly controlled the growth | perfectly controlled the growth | perfectly controlled the growth
 | COC(=O)COc1ncccc1Oc1cc(-n2c(=O)cc(C(F)(F)F)n(C)c2=O)c(F)cc1C#N [Compound 40] | perfectly controlled the growth | perfectly controlled the growth | perfectly controlled the growth | perfectly controlled the growth
 | Cn1c(C(F)(F)F)cc(=O)n(-c2cc(Oc3cccnc3OCC(=O)O)c(Cl)cc2F)c1=O [Compound 1] | perfectly controlled the growth | perfectly controlled the growth | perfectly controlled the growth | perfectly controlled the growth
 | COC(=O)COc1ncccc1Oc1cc(-n2c(=O)cc(C(F)(F)F)n(C)c2=O)c(F)cc1Cl [Compound 2, 3-[2-chloro-4-fluoro-5-(3-methyl-2,6-dioxo-4-trifluoromethyl-1,2,3,6-tetrahydropyrimidin-1-yl)phenoxy]-2-(methoxycarbonylmethoxy)pyridine] | perfectly controlled the growth | perfectly controlled the growth | perfectly controlled the growth | perfectly controlled the growth
180.8 | Cn1c(C(F)(F)F)cc(=O)n(-c2cc(Oc3ccc[nH]c3=O)c(Cl)cc2F)c1=O [Compound 76, 3-[2-chloro-4-fluoro-5-(3-methyl-2,6-dioxo-4-trifluoromethyl-1,2,3,6-tetrahydropyrimidin-1-yl)phenoxy]-1H-pyridin-2-one] | perfectly controlled the growth | perfectly controlled the growth | perfectly controlled the growth | perfectly controlled the growth
